Source: patent US11767341B2, “Lincosamide antibiotics and uses thereof” (President and Fellows of Harvard College, priority 2017, dated 2023)
Values after ≈ are worked out from the molar mass of the structure shown.

Test system: S. aureus ATCC 29213
Experiment: MIC determination
Format: cell-based
Details: Staphylococcus aureus, ATCC29213, S. aureus ATCC 29213; read-out: MIC

**Q.** Which MIC does the source give for `CSC1O[C@H]([C@H](NC(=O)[C@H]2NC[C@@H]3C[C@@H](c4cc(F)cc(F)c4)CCO[C@H]32)[C@H](C)Cl)C(O)[C@@H](O)[C@H]1O` (some centres unmarked) [FSA-511080] here?
**A.** 0.12 µg/mL (≈ 0.218 µM)

**Q.** How did the MIC turn out when `CSC1O[C@H]([C@H](NC(=O)[C@H]2NC[C@@H]3C=C(c4cccc(F)c4)CCO[C@@H]23)[C@H](C)Cl)C(O)[C@@H](O)[C@H]1O` (some centres unmarked) [FSA-511071] was run?
**A.** 7 µg/mL (≈ 13.2 µM)

Test system: S. aureus BAA 977 iErmA
Experiment: MIC determination
Format: cell-based
Details: Staphylococcus aureus, BAA977

**Q.** For `CSC1O[C@H]([C@H](NC(=O)[C@H]2NC[C@@H]3C[C@@H](c4cc(F)cc(F)c4)CCO[C@H]32)[C@H](C)Cl)C(O)[C@@H](O)[C@H]1O` (some centres unmarked) [FSA-511080], which MIC is on record?
**A.** 0.25 µg/mL (≈ 0.454 µM)

**Q.** For `CSC1O[C@H]([C@H](NC(=O)[C@H]2NC[C@@H]3C=C(c4cccc(F)c4)CCO[C@@H]23)[C@H](C)Cl)C(O)[C@@H](O)[C@H]1O` (some centres unmarked) [FSA-511071], which MIC is on record?
**A.** 2 µg/mL (≈ 3.77 µM)

Test system: S. aureus MP-549 msr(a) USA 300
Experiment: MIC determination
Format: cell-based
Details: Staphylococcus aureus, USA300, S. aureus MP-549 msr(a) USA 300

**Q.** How did the MIC turn out when `CSC1O[C@H]([C@H](NC(=O)[C@H]2NC[C@@H]3C[C@@H](c4cc(F)cc(F)c4)CCO[C@H]32)[C@H](C)Cl)C(O)[C@@H](O)[C@H]1O` (some centres unmarked) [FSA-511080] was run?
**A.** 0.25 µg/mL (≈ 0.454 µM)

**Q.** `CSC1O[C@H]([C@H](NC(=O)[C@H]2NC[C@@H]3C=C(c4cccc(F)c4)CCO[C@@H]23)[C@H](C)Cl)C(O)[C@@H](O)[C@H]1O` (some centres unmarked) [FSA-511071] was tested. Which MIC did it give?
**A.** 1 µg/mL (≈ 1.88 µM)

Test system: S. aureus MMX 3035 cErmA
Experiment: MIC determination
Format: cell-based
Details: Staphylococcus aureus, MMX3035CERMA; S. aureus MMX 3035 cErmA; read-out: MIC

**Q.** For `CSC1O[C@H]([C@H](NC(=O)[C@H]2NC[C@@H]3C[C@@H](c4cc(F)cc(F)c4)CCO[C@H]32)[C@H](C)Cl)C(O)[C@@H](O)[C@H]1O` (some centres unmarked) [FSA-511080], which MIC is on record?
**A.** > 64 µg/mL

**Q.** How did the MIC turn out when `CSC1O[C@H]([C@H](NC(=O)[C@H]2NC[C@@H]3C=C(c4cccc(F)c4)CCO[C@@H]23)[C@H](C)Cl)C(O)[C@@H](O)[C@H]1O` (some centres unmarked) [FSA-511071] was run?
**A.** > 64 µg/mL

Test system: S. pneumoniae ATCC 49619
Experiment: MIC determination
Format: cell-based
Details: Streptococcus pneumoniae, ATCC49619; S. pneumoniae ATCC 49619; read-out: MIC

**Q.** With `CSC1O[C@H]([C@H](NC(=O)[C@H]2NC[C@@H]3C[C@@H](c4cc(F)cc(F)c4)CCO[C@H]32)[C@H](C)Cl)C(O)[C@@H](O)[C@H]1O` (some centres unmarked) [FSA-511080] as the compound, how does the MIC read?
**A.** ≤ 0.06 µg/mL

**Q.** For `CSC1O[C@H]([C@H](NC(=O)[C@H]2NC[C@@H]3C=C(c4cccc(F)c4)CCO[C@@H]23)[C@H](C)Cl)C(O)[C@@H](O)[C@H]1O` (some centres unmarked) [FSA-511071], which MIC is on record?
**A.** 0.25 µg/mL (≈ 0.471 µM)

Test system: S. pneumoniae MMX 3028 cErmB
Experiment: MIC determination
Format: cell-based
Details: Streptococcus pneumoniae, MMX3028CERMB

**Q.** For `CSC1O[C@H]([C@H](NC(=O)[C@H]2NC[C@@H]3C=C(c4cccc(F)c4)CCO[C@@H]23)[C@H](C)Cl)C(O)[C@@H](O)[C@H]1O` (some centres unmarked) [FSA-511071], which MIC is on record?
**A.** 64 µg/mL (≈ 121 µM)

Same assay, conditions: Streptococcus pneumoniae, MMX3028CERMB; S. pneumoniae MMX 3028 cErmB; read-out: MIC

**Q.** `CSC1O[C@H]([C@H](NC(=O)[C@H]2NC[C@@H]3C[C@@H](c4cc(F)cc(F)c4)CCO[C@H]32)[C@H](C)Cl)C(O)[C@@H](O)[C@H]1O` (some centres unmarked) [FSA-511080] was tested. Which MIC did it give?
**A.** 8 µg/mL (≈ 14.5 µM)

Test system: S. pneumoniae MMX 3031 cMefA
Experiment: MIC determination
Format: cell-based
Details: Streptococcus pneumoniae, MMX3031CMEFA

**Q.** With `CSC1O[C@H]([C@H](NC(=O)[C@H]2NC[C@@H]3C[C@@H](c4cc(F)cc(F)c4)CCO[C@H]32)[C@H](C)Cl)C(O)[C@@H](O)[C@H]1O` (some centres unmarked) [FSA-511080] as the compound, how does the MIC read?
**A.** ≤ 0.06 µg/mL

**Q.** Which MIC does the source give for `CSC1O[C@H]([C@H](NC(=O)[C@H]2NC[C@@H]3C=C(c4cccc(F)c4)CCO[C@@H]23)[C@H](C)Cl)C(O)[C@@H](O)[C@H]1O` (some centres unmarked) [FSA-511071] here?
**A.** 0.5 µg/mL (≈ 0.942 µM)

Test system: S. pyogenes ATCC 19615
Experiment: MIC determination
Format: cell-based
Details: Streptococcus pyogenes, ATCC19615; S. pyogenes ATCC 19615; read-out: MIC

**Q.** Which MIC does the source give for `CSC1O[C@H]([C@H](NC(=O)[C@H]2NC[C@@H]3C[C@@H](c4cc(F)cc(F)c4)CCO[C@H]32)[C@H](C)Cl)C(O)[C@@H](O)[C@H]1O` (some centres unmarked) [FSA-511080] here?
**A.** ≤ 0.06 µg/mL

**Q.** `CSC1O[C@H]([C@H](NC(=O)[C@H]2NC[C@@H]3C=C(c4cccc(F)c4)CCO[C@@H]23)[C@H](C)Cl)C(O)[C@@H](O)[C@H]1O` (some centres unmarked) [FSA-511071] was tested. Which MIC did it give?
**A.** 0.5 µg/mL (≈ 0.942 µM)

Test system: S. pyogenes MMX 946 Macrolide-Resistant
Experiment: MIC determination
Format: cell-based
Details: Streptococcus pyogenes; S. pyogenes MMX 946 MacRes; read-out: MIC

**Q.** Which MIC does the source give for `CSC1O[C@H]([C@H](NC(=O)[C@H]2NC[C@@H]3C[C@@H](c4cc(F)cc(F)c4)CCO[C@H]32)[C@H](C)Cl)C(O)[C@@H](O)[C@H]1O` (some centres unmarked) [FSA-511080] here?
**A.** 32 µg/mL (≈ 58.1 µM)

Same assay, conditions: Streptococcus pyogenes; S. pyogenes MMX 946 Macrolide-Resistant (MacRes); read-out: MIC

**Q.** With `CSC1O[C@H]([C@H](NC(=O)[C@H]2NC[C@@H]3C=C(c4cccc(F)c4)CCO[C@@H]23)[C@H](C)Cl)C(O)[C@@H](O)[C@H]1O` (some centres unmarked) [FSA-511071] as the compound, how does the MIC read?
**A.** > 64 µg/mL

Test system: E. faecalis ATCC 29212
Experiment: MIC determination
Format: cell-based
Details: Enterococcus faecalis, ATCC29212, read-out: MIC

**Q.** Which MIC does the source give for `CSC1O[C@H]([C@H](NC(=O)[C@H]2NC[C@@H]3C[C@@H](c4cc(F)cc(F)c4)CCO[C@H]32)[C@H](C)Cl)C(O)[C@@H](O)[C@H]1O` (some centres unmarked) [FSA-511080] here?
**A.** 0.5 µg/mL (≈ 0.907 µM)

**Q.** `CSC1O[C@H]([C@H](NC(=O)[C@H]2NC[C@@H]3C=C(c4cccc(F)c4)CCO[C@@H]23)[C@H](C)Cl)C(O)[C@@H](O)[C@H]1O` (some centres unmarked) [FSA-511071] was tested. Which MIC did it give?
**A.** 4 µg/mL (≈ 7.53 µM)

Test system: E. faecalis MMX 847 Macrolide-Resistant
Experiment: MIC determination
Format: cell-based
Details: Enterococcus faecalis; E. faecalis MMX 847 MacRes; read-out: MIC

**Q.** How did the MIC turn out when `CSC1O[C@H]([C@H](NC(=O)[C@H]2NC[C@@H]3C[C@@H](c4cc(F)cc(F)c4)CCO[C@H]32)[C@H](C)Cl)C(O)[C@@H](O)[C@H]1O` (some centres unmarked) [FSA-511080] was run?
**A.** > 64 µg/mL

Same assay, conditions: Enterococcus faecalis; E. faecalis MMX 847 Macrolide-Resistant (MacRes); read-out: MIC

**Q.** `CSC1O[C@H]([C@H](NC(=O)[C@H]2NC[C@@H]3C=C(c4cccc(F)c4)CCO[C@@H]23)[C@H](C)Cl)C(O)[C@@H](O)[C@H]1O` (some centres unmarked) [FSA-511071] was tested. Which MIC did it give?
**A.** > 64 µg/mL

Test system: K. pneumoniae ATCC 10031
Experiment: MIC determination
Format: cell-based
Details: Klebsiella pneumoniae, ATCC10031

**Q.** Which MIC does the source give for `CSC1O[C@H]([C@H](NC(=O)[C@H]2NC[C@@H]3C[C@@H](c4cc(F)cc(F)c4)CCO[C@H]32)[C@H](C)Cl)C(O)[C@@H](O)[C@H]1O` (some centres unmarked) [FSA-511080] here?
**A.** 16 µg/mL (≈ 29 µM)

**Q.** For `CSC1O[C@H]([C@H](NC(=O)[C@H]2NC[C@@H]3C=C(c4cccc(F)c4)CCO[C@@H]23)[C@H](C)Cl)C(O)[C@@H](O)[C@H]1O` (some centres unmarked) [FSA-511071], which MIC is on record?
**A.** 64 µg/mL (≈ 121 µM)

Test system: E. coli ATCC 25922
Experiment: MIC determination
Format: cell-based
Details: Escherichia coli, ATCC25922, E. coli ATCC 25922; read-out: MIC

**Q.** For `CSC1O[C@H]([C@H](NC(=O)[C@H]2NC[C@@H]3C[C@@H](c4cc(F)cc(F)c4)CCO[C@H]32)[C@H](C)Cl)C(O)[C@@H](O)[C@H]1O` (some centres unmarked) [FSA-511080], which MIC is on record?
**A.** > 64 µg/mL

**Q.** With `CSC1O[C@H]([C@H](NC(=O)[C@H]2NC[C@@H]3C=C(c4cccc(F)c4)CCO[C@@H]23)[C@H](C)Cl)C(O)[C@@H](O)[C@H]1O` (some centres unmarked) [FSA-511071] as the compound, how does the MIC read?
**A.** > 64 µg/mL

Test system: E. coli MP-9 ΔTolC
Experiment: MIC determination
Format: cell-based
Details: Escherichia coli

**Q.** For `CSC1O[C@H]([C@H](NC(=O)[C@H]2NC[C@@H]3C[C@@H](c4cc(F)cc(F)c4)CCO[C@H]32)[C@H](C)Cl)C(O)[C@@H](O)[C@H]1O` (some centres unmarked) [FSA-511080], which MIC is on record?
**A.** 4 µg/mL (≈ 7.26 µM)

**Q.** `CSC1O[C@H]([C@H](NC(=O)[C@H]2NC[C@@H]3C=C(c4cccc(F)c4)CCO[C@@H]23)[C@H](C)Cl)C(O)[C@@H](O)[C@H]1O` (some centres unmarked) [FSA-511071] was tested. Which MIC did it give?
**A.** 64 µg/mL (≈ 121 µM)

Test system: E. coli MP-74 LptD mutant
Experiment: MIC determination
Format: cell-based
Details: Escherichia coli

**Q.** With `CSC1O[C@H]([C@H](NC(=O)[C@H]2NC[C@@H]3C[C@@H](c4cc(F)cc(F)c4)CCO[C@H]32)[C@H](C)Cl)C(O)[C@@H](O)[C@H]1O` (some centres unmarked) [FSA-511080] as the compound, how does the MIC read?
**A.** 16 µg/mL (≈ 29 µM)

**Q.** Which MIC does the source give for `CSC1O[C@H]([C@H](NC(=O)[C@H]2NC[C@@H]3C=C(c4cccc(F)c4)CCO[C@@H]23)[C@H](C)Cl)C(O)[C@@H](O)[C@H]1O` (some centres unmarked) [FSA-511071] here?
**A.** 64 µg/mL (≈ 121 µM)

Test system: H. influenzae ATCC 49247
Experiment: MIC determination
Format: cell-based
Details: Haemophilus influenzae, ATCC49247

**Q.** Which MIC does the source give for `CSC1O[C@H]([C@H](NC(=O)[C@H]2NC[C@@H]3C[C@@H](c4cc(F)cc(F)c4)CCO[C@H]32)[C@H](C)Cl)C(O)[C@@H](O)[C@H]1O` (some centres unmarked) [FSA-511080] here?
**A.** 16 µg/mL (≈ 29 µM)

Same assay, conditions: Haemophilus influenzae, ATCC49247; H. influenzae ATCC 49247; read-out: MIC

**Q.** Which MIC does the source give for `CSC1O[C@H]([C@H](NC(=O)[C@H]2NC[C@@H]3C=C(c4cccc(F)c4)CCO[C@@H]23)[C@H](C)Cl)C(O)[C@@H](O)[C@H]1O` (some centres unmarked) [FSA-511071] here?
**A.** > 64 µg/mL
